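Method: 48-hour compound exposure of cells in 96-well plates, five concentrations, linear interpolation of endpoints. At the GI50, growth is halved. TGI: total growth inhibition.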
These compounds were tested on HOP-92 NSCLC (assay: NCI tumour cell line growth inhibition, 48 h).
In the case of `COc1ccc(OCC(=O)O)c2c1CCCC2=O`, the TGI is reported as greater than 100 µM. Compound `Cc1nc(Nc2ccc(Cl)cc2)sc1C(=O)NNC(=S)NN` has a TGI of 43.2 µM. Compound `CCOC(=O)N[C@H]1CCc2cc(OC)c(OC)c(OC)c2-c2ccc(SC)c(=O)cc21` has a GI50 of 0.0198 µM and a TGI greater than 100 µM. `Cc1ccc2nc(/C(=C/c3ccc(/C=C(\NC(=O)c4ccccc4)c4nc5ccc(C)cc5[nH]4)c(C)c3)NC(=O)c3ccccc3)[nH]c2c1` showed a TGI of 52 µM. For `COC1C(OC(=S)Nc2ccccc2)c2ccccc2N1C(C)=O` (stereo unspecified), the TGI was 92.2 µM. `O=C(Nc1cccc(Cl)c1)C(=O)C(C(=O)c1ccc2ccccc2c1)C1OC(=O)c2ccccc21` (stereo unspecified) gave a TGI of 54.3 µM. `CC1=Cc2cccc(C)c2C(=O)C1=O` was tested, and the TGI was 2.92 µM. `Cc1ccc(C)c(NC(=O)c2cccc([N+](=O)[O-])c2O)c1` showed a TGI of 41.3 µM. Work on `COCC(OC)C(CC=C(C#N)C#N)OC` (stereo unspecified) yielded a TGI greater than 100 µM. `NC1CCN(Cc2ccccc2)CC1` gave a GI50 greater than 100 µM and a TGI greater than 100 µM. In the case of `N#Cc1nn(-c2cc(=O)[nH]c3ccc(Cl)cc23)c(N)c1C#N`, the GI50 is reported as 10.2 µM and the TGI is reported as greater than 100 µM. Work on `On1c(-c2ccccc2)c(-c2ccccc2N2CCCC2)c2ccccc21` yielded a TGI greater than 100 µM. For `N#CC(C(=O)/C(=N\NC(N)=O)C(C#N)c1ccc(Cl)cc1)c1ccc(Cl)cc1` (stereo unspecified), the TGI was greater than 100 µM. Compound `CC(C)(C)c1cc(C(P(=O)(O)O)P(=O)(O)O)cc(C(C)(C)C)c1O` has a TGI greater than 100 µM. For `CC(C)C1=Cc2ccc3c(c2C(=O)C1=O)CCCC3(C)C`, the TGI was 9.79 µM. Work on `Nc1ncn([C@@H]2O[C@H](CO)[C@@H](O)[C@H]2O)c(=O)n1` yielded a GI50 of 3.06 µM and a TGI of 44.5 µM. Work on `CSc1nc(SC)c2c(C#N)[nH]nc2n1` yielded a TGI greater than 100 µM. For `COc1c(O)c2c(=O)cc3c4c5c(cc(=O)c6c(O)c(OC)c(CC(C)O)c(c(c1CC(C)O)c24)c65)OCO3` (stereo unspecified), the TGI was 5.47 µM. With `COc1ccc(CCN(C)C2CCC(C#N)(c3ccc(OC)c(OC)c3)CC2)cc1OC` (stereo unspecified) the TGI was greater than 100 µM. Work on `C=CCC1(c2ccc(OC)cc2)C=CC(=O)CC1` (stereo unspecified) yielded a TGI greater than 100 µM. In the case of `COC(=O)[C@]12CC[C@@H](C)[C@H](C)[C@@H]1C1=CC[C@@H]3[C@@]4(C)C[C@@H](O)[C@H](O)[C@@](C)(CO)C4=CC[C@@]3(C)[C@]1(C)CC2`, the GI50 is reported as 19.2 µM and the TGI is reported as 34.9 µM. With `Cc1nc(N)sc1N=Nc1ccccc1Br` the TGI was 46.1 µM. `C/C(CC(=O)Nc1ccc(C)c(C)c1)=N\N(c1ccccc1)c1ccccc1` gave a TGI greater than 100 µM. `O=C(OC1CCC(=C2SCCCS2)[C@H]1C1SCCCS1)c1ccccc1` (stereo partly specified) gave a TGI greater than 100 µM. Work on `O=C(/C(=C/c1ccc(Cl)cc1)c1ccccc1)c1ccccc1` yielded a TGI of 41.7 µM. Work on `C/C(N=NC(=S)N1CC2CCC(CC2)C1)=C1\C=CC=CN1O` yielded a TGI of 54.5 µM. In the case of `CCOC(=O)c1ccc(/C(C)=N/NC(N)=S)cc1`, the TGI is reported as greater than 100 µM. Compound `c1ccc2c(OCCSCCCCCCCCCCSCCOc3cccc4ccccc34)cccc2c1` has a TGI greater than 100 µM. With `O=C(Nc1cccc(C(F)(F)F)c1)c1ccc(NC2=C(Cl)C(=O)N(Cc3ccc(Cl)cc3Cl)C2=O)cc1` the GI50 was 4.71 µM and the TGI was 16.2 µM. With `CN1CCC(=O)/C(=C/c2ccccc2)C1` the TGI was 31.9 µM.

Each compound was assayed on HS 578T breast (assay: NCI tumour cell line growth inhibition, 48 h).
`COc1ccc(-c2nnc3n(C)c(=O)c4ccccc4n23)cc1N` showed a GI50 of 4.43 µM and a TGI greater than 100 µM. With `CN(C)C1CCN(C(=O)c2ccc(NC(=O)Nc3ccc(-c4nc(N5CCOCC5)c5cccn5n4)cc3)cc2)CC1` the GI50 was 0.0192 µM and the TGI was 0.0926 µM. Work on `COc1cnc2c(c1)C(=O)c1c-2n(CCCNC2=NCCS2)c(=O)c2cc([N+](=O)[O-])ccc12` yielded a GI50 of 1.82 µM and a TGI of 4.54 µM. `CCOC(=O)N[C@H]1CCc2cc(OC)c(OC)c(OC)c2-c2ccc(SC)c(=O)cc21` was tested, and the TGI was greater than 100 µM. `COC(=O)c1ccc2c(c1)C(=O)c1c-2n(CCCN=[N+]=[N-])c(=O)c2cc(OC)c(OC)cc12` was tested, and the GI50 was greater than 100 µM and the TGI was greater than 100 µM. With `N#Cc1nn(-c2cc(=O)[nH]c3ccc(Cl)cc23)c(N)c1C#N` the GI50 was greater than 100 µM and the TGI was greater than 100 µM. In the case of `C=CCC1(c2ccc(OC)cc2)C=CC(=O)CC1` (stereo unspecified), the TGI is reported as greater than 100 µM. `COC(=O)[C@]12CC[C@@H](C)[C@H](C)[C@@H]1C1=CC[C@@H]3[C@@]4(C)C[C@@H](O)[C@H](O)[C@@](C)(CO)C4=CC[C@@]3(C)[C@]1(C)CC2` showed a GI50 of 17.9 µM and a TGI of 36.4 µM. `COc1ccc(C(=O)Nc2ccc(O)c(=O)cc2)cc1` showed a TGI greater than 100 µM.

From PubChem BioAssay (NCI)
